# Source: US7659240B2, “Mucin immobilized chromatography” (Vertex Pharmaceuticals Incorporated, priority 2002, dated 2010)
# “And” between values parts separate entries of the source, which are not always exact repeats. Identical values can stand only once. Counter-ions that a name gives are not always drawn. Like-named read-outs stand apart in the source and are kept apart here.
# Tests used:
# [1] = tested on: mucin immobilized to IAM.PC.DD2; test: HPLC on MIC column (2:1 mucin to PC IAM particles): retention time, k′MIC, derived Km and Peff MIC; settings: for k′MIC / Retention Time: MIC column 2:1 mucin:IAM, MPS pH 7.4; for Retention Time: isocratic 0.3 ml/min; for Dm: membrane diffusion coefficient calculated from molecular weight
# Procedure: [formula] where Dm is the membrane diffusion coefficient of the solute, Km is the membrane equilibrium constant, and L is the membrane thickness (Stein, W., Transport and Diffusion Across Cell Membranes, Academic Press, Orlando, Fla. (1986)). […] Since molecular weight, MW, is proportional to molecular size, Dm may also written as,
# [formula] Thus, Dm can be calculated from the molecular weight. Furthermore, Km is calculated by the following equation, Km−(Vm/Vs)k′, [4] where Vm is the volume of the mobile phase, Vs is the internal volume of the stationary phase, and k′ is the partition ratio (Pidgeon and Ong, Chemtech. June, 38-48 (1995)). The partition ratio is determined by the equation, k′−(tr−to)/to, [5] where tr is the retention time of the drug and to is the void volume of the column. Both tr and to can be experimentally determined in order to obtain k′.
# Equation 2 can be used to determine Km for a given MIC medium. Both Dm and L are known from the discussion above, and Peff can be calculated for various drugs having known in vivo absorption. For example, a number of drug permeability coefficients, Peff, derived from in vivo experiments are listed in literature. […] See Example 5 below.
# [2] = tested on: mucin immobilized to PC IAM particles; test: pH and mucin layer thickness dependence of partition ratio on MIC columns (1:2 and 2:1); settings: for (1:2) k′ (pH 3) / (1:2) k′ (pH 5) / (1:2) k′ (pH 7): column 1:2 mucin to PC IAM, 0.32 μm mucin layer; for (1:2) k′ (pH 3) / (2:1) k′ (pH 3): mobile phase pH 3; for (1:2) k′ (pH 5) / (2:1) k′ (pH 5): mobile phase pH 5; for (1:2) k′ (pH 7) / (2:1) k′ (pH 7): mobile phase pH 7; for (2:1) k′ (pH 3) / (2:1) k′ (pH 5) / (2:1) k′ (pH 7): column 2:1 mucin to PC IAM, 0.36 μm mucin layer; for k′MIC (1:2): column 1:2, 0.32 μm; for k′MIC (1:2) / k′MIC (2:1): pH 7, Table 9; for k′MIC (2:1): column 2:1, 0.36 μm
# [3] = cited from earlier work
# [4] = single-pass perfusions, cited from earlier work
Structure (SMILES),k′MIC [1],Retention Time [1],Dm [1],(1:2) k′ (pH 3) [2],(1:2) k′ (pH 5) [2],(1:2) k′ (pH 7) [2],(2:1) k′ (pH 3) [2],(2:1) k′ (pH 5) [2],(2:1) k′ (pH 7) [2],other results
Nc1nc2c(ncn2COCCO)c(=O)[nH]1 [Acyclovir],33.5714,2.4,0.0044,25.67,15.67,25.67,20.43,20.43,24.00,–
C=CCc1ccccc1OCC(O)CNC(C)C (centres unmarked) [Alprenolol],46.1429,3.3,0.0035,54.00,64.00,42.33,43.29,49.00,82.33,–
CC(C)NCC(O)COc1ccc(CC(N)=O)cc1 (centres unmarked) [Atenolol],–,–,–,39.00,39.00,39.00,29.00,31.86,37.33,% Absorbed ([3]; Table 5): 50%; % Absorbed ([3]; Table 6): 50%; Peff Loc-I-Gut (×10^−4 cm/s) ([4]; Table 5): 0.15 ×10^−4 cm/s; Peff Loc-I-Gut (×10^−4 cm/s) ([4]; Table 6): 0.15 ×10^−4 cm/s; Peff Loc-I-Gut (×10^−4 cm/s) ([4]; Table 9): 0.2 ×10^−4 cm/s; k′MIC (1:2) [2]: 39; k′MIC (2:1) [2]: 37
Cn1c(=O)c2c(ncn2C)n(C)c1=O [Caffeine],37.5714,2.7,0.0051,44.00,44.00,45.67,34.71,34.71,39.00,–
CN/C(=N/CCSCc1nc[nH]c1C)NC#N [Cimetidine],–,–,0.0039 and 0.0040,25.67,29.00,44.00,17.57,23.29,35.67,–
CN(CC(=O)O)C(=N)N [Creatine],30.4286,2.2,0.0088,39.00,39.00,39.00,20.43,23.29,32.33,"K′MIC ([1]; MIC 2:1, Table 5): 30.43; Peff MIC (×10^−4 cm/s) ([1]; determined by linear equation, Table 5): −0.22 ×10^−4 cm/s; % Absorbed ([3]; Table 5): 0%; Peff Loc-I-Gut (×10^−4 cm/s) ([4]; Table 5): 0.3 ×10^−4 cm/s; Peff Loc-I-Gut (×10^−4 cm/s) ([4]; Table 9): 0.3 ×10^−4 cm/s; k′MIC (1:2) [2]: 25.7; k′MIC (2:1) [2]: 24"
NS(=O)(=O)c1cc(C(=O)O)c(NCc2ccco2)cc1Cl [Furosemide],–,–,–,40.67,37.33,35.67,30.43,27.57,25.67,% Absorbed ([3]; Table 5): 60%; Peff Loc-I-Gut (×10^−4 cm/s) ([4]; Table 5): 0.3 ×10^−4 cm/s; Peff Loc-I-Gut (×10^−4 cm/s) ([4]; Table 9): 0.3 ×10^−4 cm/s; k′MIC (1:2) [2]: 35.7; k′MIC (2:1) [2]: 25.7
CC(C)Cc1ccc(C(C)C(=O)O)cc1 (centres unmarked) [Ibuprofen],53.2857,3.8,0.0044,–,–,–,–,–,–,–
CC(C(=O)O)c1cccc(C(=O)c2ccccc2)c1 (centres unmarked) [Ketoprofen],52.5714,3.8,0.0039,25.67,29.00,82.33,20.43,27.57,70.67,"K′MIC ([1]; MIC 2:1, Table 5): 52; k′MIC (1:2) [2]: 82.3; k′MIC (2:1) [2]: 70.7"
CC(CCc1ccccc1)NCC(O)c1ccc(O)c(C(N)=O)c1 (centres unmarked) [Labetalol],53.2857,3.8,0.0027,24.00,24.00,32.33,79.00,90.43,132.33,–
OC[C@@H](O)[C@@H](O)[C@H](O)[C@H](O)CO [Mannitol],33.4286,2.4,0.0055,–,–,–,–,–,–,–
COc1ccc2cc([C@H](C)C(=O)O)ccc2c1 [Naproxen],–,–,–,–,–,–,–,–,–,% Absorbed ([3]; Table 5): 100%; % Absorbed ([3]; Table 6): 100%; Peff Loc-I-Gut (×10^−4 cm/s) ([4]; Table 5): 8.0 ×10^−4 cm/s; Peff Loc-I-Gut (×10^−4 cm/s) ([4]; Table 6): 8.0 ×10^−4 cm/s; Peff Loc-I-Gut (×10^−4 cm/s) ([4]; Table 9): 8.0 ×10^−4 cm/s
CC(COc1ccccc1)N(CCCl)Cc1ccccc1 (centres unmarked) [Phenoxybenzamine HCl],–,–,–,20.67,29.00,29.00,20.43,17.57,15.67,–
CC(C)(C)NC[C@H](O)COc1nsnc1N1CCOCC1 [Timolol],36.1429,2.6,0.0023,–,–,–,–,–,–,–
COc1ccc(CCN(C)CCCC(C#N)(c2ccc(OC)c(OC)c2)C(C)C)cc1OC (centres unmarked) [Verapamil],71.8571,5.1,0.0020,–,–,–,–,–,–,"K′MIC ([1]; MIC 2:1, Table 5): 71.86"
CC(=O)CC(c1ccccc1)c1c(O)c2ccccc2oc1=O (centres unmarked) [Warfarin],54.7143,3.9,0.0032,25.67,30.67,39.00,21.86,24.71,19.00,δ = log k′MIC − log k′IAM [1]: 0.59; log k′MIC ([1]; MIC 2:1): 1.74
CC(=O)Nc1ccc(O)cc1 [acetaminophen],38.2857,2.8,0.0066,64.00,65.67,64.00,50.43,51.86,62.33,–
CC(=O)Oc1ccccc1C(=O)O [acetyl salicylic acid],38.5714,2.8,0.0055,34.00,40.67,22.33,30.43,24.71,20.67,–
CN(Cc1cnc2nc(N)nc(N)c2n1)c1ccc(C(=O)N[C@@H](CCC(=O)O)C(=O)O)cc1 [amethopterin],–,–,–,10.67,29.00,12.33,none,13.29,57.33,–
COc1ccc(Cl)cc1C(=O)NCCc1ccc(S(=O)(=O)NC(=O)NC2CCCCC2)cc1 [glybenclamide],–,–,–,none,30.67,30.67,none,19.00,34.00,–
NCC(=O)O [glycine],–,–,–,none,none,none,none,none,none,–
O=C(CCCN1CCC(O)(c2ccc(Cl)cc2)CC1)c1ccc(F)cc1 [haloperidol],–,–,–,30.67,44.00,110.67,23.29,34.71,95.67,–
CC(C)C[C@H](N)C(=O)O [leucine],–,–,–,none,none,none,none,none,none,–
"C=C[C@H]1C[N@@]2CC[C@H]1C[C@@H]2[C@@H](O)c1ccnc2ccc(OC)cc12 [quinidine, HCl]",70.4286,5.0,0.0026,–,–,–,–,–,–,–
O=C(O)c1cc(/N=N/c2ccc(S(=O)(=O)Nc3ccccn3)cc2)ccc1O [sulfasalazine],71.8571,5.1,0.0025,87.33,85.67,24.00,70.43,67.57,22.33,–
C[C@](N)(Cc1ccc(O)c(O)c1)C(=O)O [α-methyldopa],33.2857,2.4,0.0047,–,–,–,–,–,–,"Peff MIC (×10^−4 cm/s) [1]: 0.10 ×10^−4 cm/s; K′MIC ([1]; MIC 2:1, Table 5): 33.29; % Absorbed ([3]; Table 5): 0%; Peff Loc-I-Gut (×10^−4 cm/s) ([4]; Table 5): 0.2 ×10^−4 cm/s"
